The values below are quoted from earlier work in patent US12009562B2, “High solubility iron hexacyanides” (Lockheed Martin Energy, LLC, priority 2012, dated 2024).

Consider `O.O.O.O.O.O.O.O.O.O.[C-]#N.[C-]#N.[C-]#N.[C-]#N.[C-]#N.[C-]#N.[Fe+2].[Na+].[Na+].[Na+].[Na+]` [Na4Fe(CN)6.10H2O], for which the “concentration reported upon saturating 2 M NaOH” value was about 0.6 M.
